Laboratory results taken from patent EP4818168A1, “FUSED RING COMPOUND, PHARMACEUTICAL COMPOSITION THEREOF AND USE THEREOF” (priority 2023, dated 2025).
Read-outs that look alike come from different tables or passages of the source.

Columns and labels:
[1] = test system: H82 cells; test: cells; format: cell-based; conditions: Homo sapiens
Procedure, shortened: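 After 6 days' compound treatment at 37 °C (final DMSO 0.1%, RPMI1640/10% FBS), viable H82 cells were quantified by ATP-dependent CellTiter-Glo luminescence. Remaining activity was calculated against DMSO and medium wells, and a sigmoidal fit gave IC50.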

[2] = molecular target: T1, AURKA (Homo sapiens, UniProt O14965); format: cell-based
T1 construct: endogenous in cells; host or cells: Jurkat cells
T1 sequence (O14965 1-403): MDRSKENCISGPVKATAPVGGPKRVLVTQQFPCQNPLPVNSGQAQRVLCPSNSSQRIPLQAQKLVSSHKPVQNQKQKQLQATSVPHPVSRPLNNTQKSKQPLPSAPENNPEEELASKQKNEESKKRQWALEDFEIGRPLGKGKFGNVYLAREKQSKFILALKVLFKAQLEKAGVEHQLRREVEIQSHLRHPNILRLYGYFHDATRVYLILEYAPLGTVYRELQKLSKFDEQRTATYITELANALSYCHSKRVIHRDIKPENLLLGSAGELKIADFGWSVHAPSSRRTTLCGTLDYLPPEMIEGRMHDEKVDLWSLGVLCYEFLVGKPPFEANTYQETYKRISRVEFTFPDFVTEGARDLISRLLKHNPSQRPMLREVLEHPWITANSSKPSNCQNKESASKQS
Procedure, shortened: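 AURKA degradation read by western blot: band signal, fluorescent or chemiluminescent, curve-fitted to derive DC50. Cells were Jurkat, plated at 1×10^6 cells/500 µL with compound, then lysed and blotted onto nitrocellulose, primary antibody overnight at 4°C.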

[3] = NCI-H82, H82 cells, 4000 cells/well, CellTiter-Glo, read-out: IC50 in H82 Cells
[4] = 100 nM compound, Jurkat cells, 24 h, Table 2
[5] = 1 µM compound, Jurkat cells, 24 h, Table 2
[6] = NCI-H82, read-out: IC50 in H82 Cells

Row | Compound | IC50 [1, 3] | Percentage of AURKA Degradation Induced by 100 nM Compound in Jurkat Cells [2, 4] | Percentage of AURKA Degradation Induced by 1 µM Compound in Jurkat Cells [2, 5] | IC50 [1, 6] | Percentage of AURKA Degradation Induced by 100 nM Compound in Jurkat Cells [2] | Percentage of AURKA Degradation Induced by 1 µM Compound in Jurkat Cells [2]
1 | CN(CCN1CCN(c2ncc(N3CCC(=O)NC3=O)s2)CC1)C(=O)c1ccc(Nc2ncc3c(n2)-c2ccc(C4CC4)cc2C(c2c(F)cccc2F)=NC3)cc1 [Compound A135] | < 1000 nM | +++ (Degradation > 70%) | ++ (30% < Degradation ≤ 70%) |  |  | 
2 | O=C1CCN(c2cccc(N3CCN(CCOc4cccc(Nc5ncc6c(n5)-c5ccc(C7CC7)cc5C(c5c(F)cccc5F)=NC6)c4)CC3)c2)C(=O)N1 [Compound A148] | < 1000 nM | +++ (Degradation > 70%) | +++ (Degradation > 70%) |  |  | 
3 | O=C1CCN(c2ccc(N3CCC4(CC3)CC(NC(=O)c3ccc(Nc5ncc6c(n5)-c5ccc(Cl)cc5C(c5c(F)cccc5F)=NC6)cc3)C4)cc2F)C(=O)N1 [Compound A96] | < 1000 nM | ++ (30% < Degradation ≤ 70%) | +++ (Degradation > 70%) |  |  | 
4 | O=C1CCN(c2ccnc(N3CCN(CC#Cc4cccc(Nc5ncc6c(n5)-c5ccc(Cl)cc5C(c5c(F)cccc5F)=NC6)c4)CC3)c2)C(=O)N1 [Compound A130] | < 1000 nM | ++ (30% < Degradation ≤ 70%) | ++ (30% < Degradation ≤ 70%) |  |  | 
5 | O=C1CCN(c2cccc(N3CCC(N4CC(c5cccc(Nc6ncc7c(n6)-c6ccc(Cl)cc6C(c6c(F)cccc6F)=NC7)c5)C4)CC3)c2)C(=O)N1 [Compound A151] | < 1000 nM | ++ (30% < Degradation ≤ 70%) | + (Degradation ≤ 30%) |  |  | 
6 | O=C1CCN(c2ccc(N3CCC4(CC3)CC(NC(=O)C35CC(Nc6ncc7c(n6)-c6ccc(Cl)cc6C(c6c(F)cccc6F)=NC7)(C3)C5)C4)nc2)C(=O)N1 [Compound A195] | < 1000 nM | +++ (Degradation > 70%) | +++ (Degradation > 70%) |  |  | 
7 | O=C1CCN(c2ccc(N3CCC(N4CCN(c5ccc(Nc6ncc7c(n6)-c6ccc(Cl)cc6C(c6c(F)cccc6F)=NC7)cc5)CC4)C(F)(F)C3)nc2)C(=O)N1 (stereo not drawn) [Compound A263] |  | +++ (Degradation > 70%) | +++ (Degradation > 70%) | < 1000 nM |  | 
8 | COc1cccc(F)c1C1=NCc2cnc(Nc3ccc(N4CC(CN5CCN(c6ccc(N7CCC(=O)NC7=O)cn6)CC5)C4)cc3)nc2-c2ccc(Cl)cc21 [Compound A253] | < 1000 nM | +++ (Degradation > 70%) | +++ (Degradation > 70%) |  |  | 
9 | CC(C1CCN(c2ccc(N3CCC(=O)NC3=O)cn2)CC1)N1CCN(C23CC(Nc4ncc5c(n4)-c4ccc(Cl)cc4C(c4c(F)cccc4F)=NC5)(C2)C3)C(=O)C1 (stereo not drawn) [Compound A302] | < 1000 nM | +++ (Degradation > 70%) | +++ (Degradation > 70%) |  |  | 
10 | Cn1c(CN2CCN(c3ncc(N4CCC(=O)NC4=O)s3)CC2)cnc1-c1ccc(Nc2ncc3c(n2)-c2ccc(Cl)cc2C(c2c(F)cccc2F)=NC3)cc1 [Compound A149] | < 1000 nM | +++ (Degradation > 70%) | +++ (Degradation > 70%) |  |  | 
11 | O=C1CCN(c2cccc(N3CCC(N4CC5(CN(c6cccc(Nc7ncc8c(n7)-c7ccc(Cl)cc7C(c7c(F)cccc7F)=NC8)c6)C5)C4)CC3)c2)C(=O)N1 [Compound A223] |  |  |  | < 1000 nM | +++ (key: +: Degradation ≤ 30%; ++: 30% < Degradation ≤ 70%; +++: Degradation > 70%) | +++ (key: +: Degradation ≤ 30%; ++: 30% < Degradation ≤ 70%; +++: Degradation > 70%)
12 | O=C1CCN(c2ccc(N3CCN(Cc4cnc(-c5ccc(Nc6ncc7c(n6)-c6ccc(Cl)cc6C(c6c(F)cccc6F)=NC7)cc5)[nH]4)CC3)cc2)C(=O)N1 [Compound A121] | < 1000 nM | +++ (Degradation > 70%) | ++ (30% < Degradation ≤ 70%) |  |  | 
13 | O=C1CCN(c2cccc(N3CCC(N4CC(c5cccc(Nc6ncc7c(n6)-c6ccc(Cl)cc6C(c6c(F)cccc6F)=NC7)c5)C4)C3)c2)C(=O)N1 (stereo not drawn) [Compound A170] | < 1000 nM | +++ (Degradation > 70%) | +++ (Degradation > 70%) |  |  | 
14 | O=C1CCN(c2cccc(C3CCN(CCOc4cccc(Nc5ncc6c(n5)-c5ccc(Cl)cc5C(c5c(F)cccc5F)=NC6)c4)C3)c2)C(=O)N1 (stereo not drawn) [Compound A144] | < 1000 nM | + (Degradation ≤ 30%) | + (Degradation ≤ 30%) |  |  | 
15 | O=C1CCN(c2ccc(N3CCC(C(=O)N4CCN(C56CC(Nc7ncc8c(n7)-c7ccc(Cl)cc7C(c7nccs7)=NC8)(C5)C6)C(=O)C4)CC3)nc2)C(=O)N1 [Compound A280] | < 1000 nM | +++ (Degradation > 70%) | +++ (Degradation > 70%) |  |  | 
16 | O=C1CCN(c2ccc(N3CCN(CC4CN(c5ccc(Nc6ncc7c(n6)-c6ccc(Cl)cc6C(c6c(F)cccc6F)=NC7)cc5)C4)CC3)nc2)C(=O)N1 [Compound A199] | < 1000 nM | +++ (Degradation > 70%) | +++ (Degradation > 70%) |  |  | 
17 | COc1cc(Nc2ncc3c(n2)-c2ccc(Cl)cc2C(c2c(F)cccc2OC)=NC3)ccc1N1CC(CN2CCN(c3ccc(N4CCC(=O)NC4=O)cn3)CC2)C1 [Compound A261] | < 1000 nM | +++ (Degradation > 70%) | +++ (Degradation > 70%) |  |  | 
18 | O=C1CCN(c2cccc(N3CC(C(=O)N4CCOc5ccc(Nc6ncc7c(n6)-c6ccc(Cl)cc6C(c6c(F)cccc6F)=NC7)cc5C4)C3)c2)C(=O)N1 [Compound A235] | < 1000 nM | ++ (30% < Degradation ≤ 70%) | + (Degradation ≤ 30%) |  |  | 
19 | O=C1CCN(c2ccc(N3CCC(N4CCN(c5ccc(Nc6ncc7c(n6)-c6ccc(Cl)cc6C(c6c(F)cccc6F)=NC7)cc5)C(=O)C4)CC3)nc2)C(=O)N1 [Compound A132] |  |  |  | < 1000 nM | +++ (key: +: Degradation ≤ 30%; ++: 30% < Degradation ≤ 70%; +++: Degradation > 70%) | +++ (key: +: Degradation ≤ 30%; ++: 30% < Degradation ≤ 70%; +++: Degradation > 70%)
20 | O=C1CCN(c2cnc(N3CCN(CCN4Cc5ccc(Nc6ncc7c(n6)-c6ccc(Cl)cc6C(c6c(F)cccc6F)=NC7)cc5C4)CC3)s2)C(=O)N1 [Compound A174] | < 1000 nM | ++ (30% < Degradation ≤ 70%) | ++ (30% < Degradation ≤ 70%) |  |  | 
21 | O=C1CCN(c2cccc(N3CCN(Cc4cccc(Nc5ncc6c(n5)-c5ccc(Cl)cc5C(c5c(F)cccc5F)=NC6)c4)CC3)c2)C(=O)N1 [Compound A146] | < 1000 nM | ++ (30% < Degradation ≤ 70%) | + (Degradation ≤ 30%) |  |  | 
22 | NC(=O)c1cc(N2CCN(C(=O)C3CCN(c4ccc(Nc5ncc6c(n5)-c5ccc(Cl)cc5C(c5c(F)cccc5F)=NC6)cc4)CC3)CC2)ncc1N1CCC(=O)NC1=O [Compound A334] | < 1000 nM | + (Degradation ≤ 30%) | + (Degradation ≤ 30%) |  |  | 
23 | O=C1CCN(c2ccc(N3CC(C(=O)N4CCN(c5ccc(Nc6ncc7c(n6)-c6ccc(Cl)cc6C(c6nccs6)=NC7)cc5)CC4)C3)nc2)C(=O)N1 [Compound A292] | < 1000 nM | +++ (Degradation > 70%) | +++ (Degradation > 70%) |  |  | 
24 | O=C1CCN(c2ccc(N3CC(CN4CCN(C56CC(Nc7ncc8c(n7)-c7ccc(Cl)cc7C(c7c(F)cccc7F)=NC8)(C5)C6)CC4)C3)nc2)C(=O)N1 [Compound A219] | < 1000 nM | +++ (Degradation > 70%) | +++ (Degradation > 70%) |  |  | 
25 | O=C1CCN(c2cncc(N3CCN(CC#Cc4cccc(Nc5ncc6c(n5)-c5ccc(Cl)cc5C(c5c(F)cccc5F)=NC6)c4)CC3)c2)C(=O)N1 [Compound A131] | < 1000 nM | +++ (Degradation > 70%) | +++ (Degradation > 70%) |  |  | 
